# Experiments:
# Assay type in all cases: cell-based
# [1] = system: Aspergillus niger ATCC 6275; experiment: MIC in microtitre plates, Aspergillus niger; settings: Aspergillus niger, ATCC6275, 120 h; Table 1; ATCC 6275; 5 days at 28° C.; ≦20% growth; read-out: MIC Aspergillus niger
# Description: (§1) Determination of Antimicrobial Activity in Accordance with the Microtitre Plate Method Determination of the Minimum Inhibitory Concentration (MIC value) in Microtitre Plates Mycological slant agar for the preculture of moulds. Aspergillus niger ATCC 6275 The test substances are predissolved in dimethyl sulfoxide (DMSO) and tested in a dilution series of 1:2. Bacteria and yeast are cultured overnight in CASO bouillon, the mould on mycological slant agar and rinsed off with 10 ml of 0.85% sodium chloride solution (+0.1% TritonX-100). All test organisms are adjusted to an organism count of 1-5*10^6 CFU/ml with 0.85% sodium chloride solution. The test substances are prepipetted into microtitre plates in an amount of 8 μl per well. Previously diluted test organism suspensions are diluted 1:100 in CASO bouillon (bacteria and yeast) and Sabouraud 2% glucose bouillon (mould) and added to the test substances in an amount of 192 μl per well. The test batches are incubated for 48 hours at 37° C. (bacteria and yeast) or for 5 days at 28° C. (mould). After incubation, the growth is determined by reference to the turbidity of the test batches (optical density) at 620 nm in a microplate reader. The minimum inhibitory concentration (MIC value) is the concentration of substance at which (compared with the growth of the control) an appreciable inhibition of the growth (≦20% growth) of the test organisms is ascertained. One microtitre plate is used for each test organism and substance concentration. All substances are tested in duplicate.
# [2] = system: Corynebacterium xerosis ATCC 373; experiment: MIC in microtitre plates, Corynebacterium xerosis; settings: ATCC373, Table 1, 48 hours at 37° C., ≦20% growth
# Description: as §1, with “casein-soybean flour-peptone bouillon” for “Mycological slant agar”, “preparation” for “preculture”, “the precultures of the test bacteria and yeast. Corynebacterium xerosis” for “moulds. Aspergillus niger”, “373” for “6275”, “The minimum inhibitory concentration (MIC value) is the concentration of substance at which (compared with the growth of the control) an appreciable inhibition of the growth (≦20% growth) of the test organisms is ascertained. One microtitre plate is used for each test organism and substance concentration. All substances are tested in duplicate.” left out
# [3] = system: Escherichia coli NCTC 8196; experiment: MIC in microtitre plates, Escherichia coli; settings: Escherichia coli, NCTC8196; Table 1; NCTC 8196; 48 hours at 37° C.; ≦20% growth; read-out: MIC Escherichia coli
# Description: as §1, with “casein-soybean flour-peptone bouillon” for “Mycological slant agar”, “preparation” for “preculture”, “the precultures of the test bacteria and yeast. Escherichia coli NCTC 8196” for “moulds. Aspergillus niger ATCC 6275”
# [4] = system: Candida albicans ATCC 10231; experiment: MIC in microtitre plates, Candida albicans; settings: Candida albicans, ATCC10231; Table 1; ATCC 10231; 48 hours at 37° C.; ≦20% growth; read-out: MIC Candida albicans
# Description: as §1, with “casein-soybean flour-peptone bouillon” for “Mycological slant agar”, “preparation” for “preculture”, “the precultures of the test bacteria and yeast. Candida albicans” for “moulds. Aspergillus niger”, “10231” for “6275”
smiles,measurement,setting,value
O=C(CC(=O)c1ccccc1O)c1ccco1 [Compound of formula (101)],MIC,[1],100 µg/mL
same,MIC,[2],50 µg/mL
same,MIC,[3],50 µg/mL
same,MIC,[4],100 to 500 µg/mL
